{"source": "patent US20070027109A1", "about": "(priority 2002, published 2007)", "key": {"[1]": {"test_system": "SLKA", "assay": "PBMC assay, HIV-1 SLKA", "format": "cell-based"}, "[2]": {"test_system": "SIVmac251", "assay": "PBMC assay, SIVmac251", "format": "cell-based, SIV"}, "[3]": {"test_system": "Subtype O BCOF-01", "assay": "PBMC assay, HIV-1 subtype O", "format": "cell-based", "conditions": "Subtype O BCOF-01, PBMC"}, "[4]": {"test_system": "monocyte/macrophages", "assay": "MTS staining for cell viability, monocyte/macrophages", "format": "cell-based, human", "from_the_text": "Peripheral blood monocytes were isolated from normal HIV-1 negative donors by plastic adherence following ficoll hypaque purification of the buffy coat, as described above for PBMCs. In many cases the same donor used to produce the PBMC populations was also used to produce monocyte/macrophages, however unlike PBMC population monocyte/macrophage, donors were never pooled. […] The monocytes were released from the plastic by vigorous pipetting with Ca^2+ and Mg^2+ free PBS. […] The monocytes (1×10^5 per 0.2 cm well) were then cultured for six days, allowing maturation of the cells to a macrophagelike phenotype. […] Cultures were washed a final time by media removal 24 hours post infection, fresh compound added and the cultures continued for an additional six days. The assays were preformed using a standardized microtiter plate format, which uses only the inner 60 wells of a 96 well plate for assay purposes. The outer rows contain media and acts an a evaporation barrier. Each plate contains cell control wells (cells only), virus control wells (cells plus virus), and experimental wells (drug plus cells plus virus). HIV p24 antigen content to assess virus replication was measured at assay termination by a commercially available p24 ELISA assay (Coulter) on cell-free supernatants, and compound cytotoxicity by MTS dye reduction. […]"}, "[5]": {"test_system": "HIV-1 RoJo", "assay": "PBMC assay, HIV-1 RoJo replication (RT activity)", "format": "cell-based", "conditions": "for IC50: RoJo, PBMC; for IC50 (50% inhibition of virus replication): 6 days; for anti-viral activity against HIV-1 RoJo virus: in vitro", "from_the_text": "Human peripheral blood mononuclear cells from a minimum of two donors, that have been blasted with PHA and IL-2, were counted, viability determined by Trypan Blue dye exclusion and mixed in equal ratios. Pooled donors were used to minimize the variability observed between individual donors which results from quantitative and qualitative differences in HIV infection and overall response to the PHA and IL-2 of primary lymphocyte populations. […] Fifty microliters of cells were then distributed to the inner 60 wells of a 96 well round bottom microtiter culture plate in a standard format developed by the Infectious Disease Research department of Southern Research Institute. Each plate contains cell control wells (cells only), virus control wells (cells plus virus), and experimental wells (drug plus cells plus virus). Serially diluted compounds were added to the microtiter plate followed by the appropriate pretitered dilution of HIV-1 RoJo. All samples were assayed in triplicate with a replicate plate without virus for the determination of compound toxicity. The final volume per well was 200 μL. The assay was incubated for 6 days in a humidified atmosphere at 37° C., 5% CO2, after which supernatants were collected, for analysis of RT activity and sister plates analyzed for cell viability by MTS dye reduction. Wells were also examined microscopically and any abnormalities noted.\nReverse transcriptase (RT) activity was measured in cell-free supernatants. Tritiated thymidine triphosphate (NEN) (TTP) was resuspended in distilled H2O at 5 Ci/mL. Poly rA and oligo dT were prepared as a stock solution which was kept at −20° C. The RT reaction buffer was prepared fresh on a daily basis and consists of 125 μL 1.0 M EGTA, 125 μL dH2O, 110 μL 10% SDS, 50 μL 1.0 M Tris (pH 7.4), 50 μL 1.0 M DTT, and 40 μL 1.0 M MgCl2. These three solutions were mixed together in a ratio of two parts TTP, one part poly rA:oligo dT, and one part reaction buffer. Ten microliters of this reaction mixture were placed in a round bottom microtiter plate and 15 μL of virus containing supernatant was added and mixed. The plate was incubated at 37° C. in a water bath with a solid support to prevent submersion of the plate and incubated for 60 minutes. Following reaction, the reaction volume was spotted onto pieces of DE81 paper, washed 5 times for 5 minutes each in a 5% sodium phosphate buffer, two times for one minute each in distilled water, two times for one minute each in 70% ethanol, and then dried.\nThe IC50 and TC50 values were calculated by linear regression. The TI represents the ratio of the TC50/IC50, and is used to determine relative potency between compounds."}, "[6]": {"test_system": "WeJo", "assay": "PBMC assay, HIV-1 WeJo", "format": "cell-based"}, "[7]": {"test_system": "HIV-1 Ba-L", "assay": "Monocyte/macrophage assay, HIV-1 Ba-L (p24 ELISA)", "format": "cell-based", "conditions": "monocytes", "from_the_text": "(§1) Peripheral blood monocytes were isolated from normal HIV-1 negative donors by plastic adherence following ficoll hypaque purification of the buffy coat, as described above for PBMCs. In many cases the same donor used to produce the PBMC populations was also used to produce monocyte/macrophages, however unlike PBMC population monocyte/macrophage, donors were never pooled. Following a two hour adherence in RPMI 1640 without phenol red supplemented with 10% human pooled AB serum (heat inactivated), 2 mM L-glutamine, 100 U/mL penicillin, 100 μg/mL streptomycin, 10 μg/mL gentamycin, cultures were washed to remove non-adherent cells. […] Adherent cells were assessed for purity by nonspecific esterase staining (a-napthyl butyrate specific esterase, Sigma Chemical Co.), and/or viability by Trypan Blue dye exclusion, counted and resuspended in RPMI 1640 supplemented with 10% Fetal Bovine Serum (heat inactivated), 2 mM L-glutamine, 100 U/mL penicillin, 100 μg/mL streptomycin, 10 μg/mL gentamycin at 1×10^6 monocytes per ml. […] HIV p24 antigen content to assess virus replication was measured at assay termination by a commercially available p24 ELISA assay (Coulter) on cell-free supernatants, and compound cytotoxicity by MTS dye reduction. […]\n(§2) ELISA kits were purchased from Coulter Electronics. […] Control curves were generated in each assay to accurately quantitate the amount of p24 antigen in each sample. […]"}, "[8]": {"test_system": "HIV-2 (CDC 310319)", "assay": "PBMC assay, HIV-2", "format": "cell-based"}, "[9]": {"test_system": "Subtype A RW/92/016", "assay": "PBMC assay, HIV-1 subtype A", "format": "cell-based", "conditions": "Subtype A RW/92/016, PBMC"}, "[10]": {"test_system": "Subtype D UG/92/046", "assay": "PBMC assay, HIV-1 subtype D", "format": "cell-based", "conditions": "Subtype D UG/92/046, PBMC"}, "[11]": {"test_system": "HIV-1 ADA", "assay": "Monocyte/macrophage assay, HIV-1 ADA (p24 ELISA)", "format": "cell-based", "conditions": "monocytes", "from_the_text": "as §1, §2"}, "[12]": {"test_system": "Subtype C BR/92/025", "assay": "PBMC assay, HIV-1 subtype C", "format": "cell-based", "conditions": "Subtype C BR/92/025, PBMC"}, "[13]": {"test_system": "Subtype B 302056 (91US056)", "assay": "PBMC assay, HIV-1 subtype B", "format": "cell-based"}, "[14]": {"test_system": "Subtype F BR/93/020", "assay": "PBMC assay, HIV-1 subtype F", "format": "cell-based", "conditions": "Subtype F BR/93/020, PBMC"}, "[15]": {"test_system": "TEKI", "assay": "PBMC assay, HIV-1 TEKI", "format": "cell-based"}, "[16]": {"test_system": "Subtype G Jv1083", "assay": "PBMC assay, HIV-1 subtype G", "format": "cell-based"}, "[17]": {"test_system": "HIV-1 clinical isolates, SIV and HIV-2", "conditions": "all viruses of Table 8", "protocol": "The inhibition of HIV-1 ADA and BaL replication in monocyte/macrophages was also assessed.\n(§3) Human immunodeficiency virus type 1 (HIV-1) strains Ba-L, ADA, SIVmac251, HIV-2 (CDC3 10319) and the subtype representative strains (Table 6) were obtained from the NIAID AIDS Research and Reference Reagent Program. The low passage pediatric isolates SLKA, WeJo and TeKi were derived in the laboratories of Southern Research Institute."}, "[18]": {"test_system": "MDR769", "conditions": "MDR769, PBMC", "protocol": "as §3\nPBMC assays were carried out as described in Example 6.\nReverse transcriptase (RT) activity was measured in cell-free supernatants as described in Example 6."}, "[19]": {"test_system": "Subtype E CMU02", "assay": "PBMC assay, HIV-1 subtype E", "format": "cell-based"}, "[20]": {"conditions": "IC50 basis, HIV-1 RoJo, PBMCs, Example 6"}}, "note": "Values joined by “and” are separate entries in the source; they are usually repeats but may differ in a detail not shown here. Equal entries are not always repeated. Where two headings read alike, the source gives them in different places.", "data": [{"compound": "Cc1cn([C@H]2C[C@H](N=[N+]=[N-])[C@@H](CO)O2)c(=O)[nH]c1=O", "note": "[AZT]", "values": [{"measurement": "IC50", "setting": "[1]", "value": 2, "unit": "nM"}, {"measurement": "IC50", "setting": "[2]; read-out: IC50", "value": 2, "unit": "nM"}, {"measurement": "IC50", "setting": "[3]", "value": 3, "unit": "nM"}, {"measurement": "CC50", "setting": "[4]", "value": 1000, "unit": "nM"}, {"measurement": "IC50", "setting": "[5]; Example 7, read-out: IC50", "value": 2, "unit": "nM"}, {"measurement": "IC50", "setting": "[6]", "value": 3, "unit": "nM"}, {"measurement": "IC50", "setting": "[7]", "value": 4, "unit": "nM"}, {"measurement": "IC50", "setting": "[8]; read-out: IC50", "value": 0.4, "unit": "nM"}, {"measurement": "IC50", "setting": "[9]", "value": 1, "unit": "nM"}, {"measurement": "IC50", "setting": "[10]", "value": 1, "unit": "nM"}, {"measurement": "IC50", "setting": "[11]", "value": 7, "unit": "nM"}, {"measurement": "IC50", "setting": "[12]; read-out: IC50", "value": 5, "unit": "nM"}, {"measurement": "IC50", "setting": "[13]; read-out: IC50", "value": 10, "unit": "nM"}, {"measurement": "IC50", "setting": "[14]; read-out: IC50", "value": 3, "unit": "nM"}, {"measurement": "IC50", "setting": "[15]", "value": 10, "unit": "nM"}, {"measurement": "IC50", "setting": "[16]; read-out: IC50", "value": 6, "unit": "nM"}]}, {"compound": "dextran sulfate, 17-20% sulfur, molecular weight 39,700 [DES 17-20% Sulfation]", "values": [{"measurement": "IC50 (50% inhibition of virus replication)", "setting": "[5]; HIV-1 RoJo, PBMCs, Example 6", "value": "0.5 µg/mL and 1.0 µg/mL"}, {"measurement": "anti-viral activity against HIV-1 RoJo virus", "setting": "[5]", "value": "significant anti-viral activity"}]}, {"compound": "sulfated dextran, 9.5% sulfur, molecular weight 30,000 [DES 9.5% Sulfation]", "values": [{"measurement": "IC50s, range over the virus panel", "setting": "[17]", "value": "5.1 to >100 μg/ml"}, {"measurement": "IC50", "setting": "[18]", "value": 13, "unit": "µg/mL"}, {"measurement": "fold less active than DES […] Sulfation", "setting": "[5]; HIV-1 RoJo infected PBMCs, Example 7", "value": 37, "unit": "fold"}, {"measurement": "IC50 (50% inhibition of virus replication)", "setting": "[5]; HIV-1 RoJo, PBMCs, Example 6", "value": 19.4, "unit": "µg/mL"}, {"measurement": "fold less active than DES 17-20% Sulfation", "setting": "[5]; [20]", "value": 39, "unit": "fold"}, {"measurement": "fold less active than DES […] Sulfation", "setting": "[5]; [20]", "value": 12, "unit": "fold"}, {"measurement": "anti-viral activity against HIV-1 RoJo virus", "setting": "[5]", "value": "significant anti-viral activity"}, {"measurement": "IC50", "setting": "[8]", "value": 5.1, "unit": "µg/mL"}, {"measurement": "IC50", "setting": "[16]", "value": "> 100", "unit": "µg/mL"}]}, {"compound": "sulfated dextran, 12.2% sulfur, molecular weight 36,000 [DES 12.5% Sulfation]", "values": [{"measurement": "IC50", "setting": "[19]", "value": ".7 µg/mL"}, {"measurement": "IC50", "setting": "[2]", "value": ".6 µg/mL"}, {"measurement": "IC50", "setting": "[18]", "value": ".7 µg/mL"}, {"measurement": "IC50 (50% inhibition of virus replication)", "setting": "[5]; HIV-1 RoJo, PBMCs, Example 6", "value": 1.6, "unit": "µg/mL"}, {"measurement": "IC50", "setting": "[5]; Example 7", "value": ".7 µg/mL"}, {"measurement": "anti-viral activity against HIV-1 RoJo virus", "setting": "[5]", "value": "significant anti-viral activity"}, {"measurement": "IC50", "setting": "[12]", "value": 10.3, "unit": "µg/mL"}, {"measurement": "IC50", "setting": "[13]", "value": ".8 µg/mL"}, {"measurement": "IC50", "setting": "[14]", "value": ".3 µg/mL"}, {"measurement": "IC50", "setting": "[16]", "value": 11.7, "unit": "µg/mL"}]}]}
